# Reference: PubChem BioAssay (NCI)
#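 Growth conditions: 96-well plates. Treatment: test compound, 48 hours, 5 concentrations. Analysis: linear interpolation between bracketing concentrations; unreached endpoints set to highest concentration. GI50: concentration for 50% inhibition of growth. TGI: concentration producing complete growth inhibition.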
# What was measured:
# Experiment in all cases: NCI-60 cell line screen, 48 h
# RXF 393 renal = system: RXF 393 renal
# U251 CNS = system: U251 CNS
# HCT-116 colon = system: HCT-116 colon
# NCI-H23 lung = system: NCI-H23 lung
# COLO 205 colon = system: COLO 205 colon
# HCC-2998 colon = system: HCC-2998 colon
# SW-620 colon = system: SW-620 colon
# SK-MEL-2 melanoma = system: SK-MEL-2 melanoma
# SK-MEL-5 melanoma = system: SK-MEL-5 melanoma
# MDA-MB-231 breast = system: MDA-MB-231 breast
SMILES,TGI (RXF 393 renal) [µM],TGI (U251 CNS) [µM],TGI (HCT-116 colon) [µM],TGI (NCI-H23 lung) [µM],TGI (COLO 205 colon) [µM],TGI (HCC-2998 colon) [µM],TGI (SW-620 colon) [µM],TGI (SK-MEL-2 melanoma) [µM],TGI (SK-MEL-5 melanoma) [µM],TGI (MDA-MB-231 breast) [µM],GI50 (RXF 393 renal) [µM],GI50 (HCT-116 colon) [µM],GI50 (NCI-H23 lung) [µM],GI50 (COLO 205 colon) [µM],GI50 (SW-620 colon) [µM],GI50 (SK-MEL-2 melanoma) [µM],GI50 (SK-MEL-5 melanoma) [µM],GI50 (MDA-MB-231 breast) [µM],GI50 (U251 CNS) [µM],GI50 (HCC-2998 colon) [µM]
O=C1Nc2ccccc2C1(O)C/C(=N/O)c1ccc2ccccc2c1 (stereo not drawn),> 100,> 100,> 100,> 100,> 100,> 100,> 100,> 100,–,–,–,–,–,–,–,–,–,–,–,–
CCc1c(C#N)c(=O)[nH]c(=O)n1CCN1CCN(C(=O)NCCCCCCNC(=O)N2CCN(CCn3c(CC)c(C#N)c(=O)[nH]c3=O)CC2)CC1,–,> 100,> 100,–,> 100,> 100,> 100,–,> 100,–,–,–,–,–,–,–,–,–,–,–
C[C@@H](NC(C#N)c1ccco1)c1ccccc1 (stereo partly drawn),> 100,> 100,> 100,> 100,–,> 100,> 100,–,> 100,–,–,–,–,–,–,–,–,–,–,–
CCSCCCSCCSCC,–,> 100,> 100,> 100,> 100,> 100,> 100,–,> 100,> 100,–,–,–,–,–,–,–,–,–,–
IC[P+]1(c2ccccc2)CCCC1,> 100,29.4,> 100,> 100,31,> 100,> 100,> 100,83.1,–,–,–,–,–,–,–,–,–,–,–
COc1cccc(-c2nc3cc(NC(=O)c4ccc(Cl)c(C#N)c4)ccc3o2)c1,9.45,–,3.47,4.15,> 100,–,> 100,74.2,4.2,> 100,3.12,1.8,1.69,5.77,4.11,9.21,1.79,3.28,–,–
CC(=O)c1c(C(F)(F)F)n([O-])c2ccccc2[n+]1=O,6.03,14.5,10.5,2.43,7.27,–,13.3,> 100,1.87,3.61,1.57,1.55,1,2.16,1.57,4.56,0.494,1.27,2.17,–
O=C(N/N=C/c1ccccc1O)N/N=C/c1ccccc1O,> 100,> 100,> 100,> 100,> 100,> 100,> 100,> 100,–,–,–,–,–,–,–,–,–,–,–,–
CC[O-].CC[O-].O=C([CH-]C(=O)c1ccccc1)CCCCCCCCC(=O)[CH-]C(=O)c1ccccc1.[Ti+4],> 100,> 100,–,> 100,> 100,> 100,> 100,> 100,> 100,–,45,–,92,> 100,> 100,> 100,> 100,–,> 100,> 100
O=C1CC(CC(=O)C2CCCCC2=O)C(=O)N1 (stereo not drawn),> 100,> 100,> 100,> 100,> 100,> 100,> 100,–,–,–,–,–,–,–,–,–,–,–,–,–
